Measurements published in patent US20250129103A1, “METHODS FOR TREATMENT OF CANCER” (Frontier Medicines Corporation, priority 2022, published 2025).
In brackets after ≈: the same amount, converted by molar mass.

Legend:
[1] = molecular target: KRAS G12C (GMPPNP-loaded) and cRAF (Ras-binding domain) interaction (Homo sapiens (Human), UniProt P01116, C118S/C51S/C80L/G12C); test: Inhibition of KRAS G12C and cRAF binding (AlphaScreen); conditions: KRAS G12C loaded with GMPPNP, cRaf RBD, 2 hours preincubation; read-out: Raf-1 RBD K-Ras IC50
Procedure, shortened: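 AlphaScreen readout (680 nm excitation, 570 nm emission) of RBD binding after a 60-90 min bead step at room temperature. This step follows 2 h compound exposure of GMPPNP-preloaded KRAS G12C in Hepes pH 7.4 buffer with MgCl2 and 10 μM GMPPNP.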

[2] = Determination of logD (1-octanol / phosphate buffer pH 7.4); format: physicochemical; conditions: 1-octanol/phosphate buffer, pH 7.4, pH 7.4, 1-octanol/phosphate buffer; read-out: Log D, pH 7.4
Description: Preparation of phosphate buffer saturated with 1-octanol: 10 mL of 100 mM phosphate buffer (pH 7.4) was added to 100 mL of 1-octanol. The mixture was shaken vigorously and left to stand at room temperature overnight.
Preparation of 1-octanol saturated with phosphate buffer: 10 mL of 1-octanol was added to 100 mL of 100 mM phosphate buffer (pH 7.4). The mixture was shaken vigorously and left to stand at room temperature overnight.
149 μL of phosphate buffer saturated with 1-octanol was added into 1st sample tube. 149 μL of 1-octanol saturated with phosphate buffer was added into the 2nd sample tube. The sample tubes were mixed vigorously and shaken for 1 hour at a speed of 800 rpm at room temperature. The sample tubes were subjected to centrifugation at 4000 rpm for 5 minutes at room temperature. Samples of the supernatant were taken from both tubes, diluted with an appropriate LCMS buffer, and analyzed on an LCMS instrument. LogD was calculated according to the following equation.

[3] = Determination of kinetic solubility (pH 7.4); format: physicochemical; conditions: phosphate buffer, pH 7.4, aqueous buffer, kinetic from dmso stock, 50 mM phosphate buffer pH 7.4, read-out: Ksol, pH 7.4
Description: 490 μL of a 50 mM phosphate buffer (pH 7.4) was added to the sample solution. The mixture was vortexed for at least 2 minutes. The vial was shaken on a Barnstead shaker at 800 rpm at room temperature for 2 hours. The vial was centrifuged at 4000 rpm for 20 minutes. The Mini-UniPrep vial was compressed to prepare a filtrate, which was injected into an HPLC-UV and LC-MS/MS system. Kinetic solubility was calculated by referencing sample peak areas to a standard calibration curve.

Sequence of KRAS G12C (GMPPNP-loaded) and cRAF (Ras-binding domain) interaction (P01116 other isoform, or with tags, fused parts or gaps G12C/C51S/C80L/C118S): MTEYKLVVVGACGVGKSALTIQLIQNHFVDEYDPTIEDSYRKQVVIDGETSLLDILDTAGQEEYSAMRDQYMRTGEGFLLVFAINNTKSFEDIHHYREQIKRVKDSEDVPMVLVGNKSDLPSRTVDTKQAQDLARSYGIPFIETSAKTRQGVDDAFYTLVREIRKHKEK

In the case of `C[C@H]1CN(C/C=C/C(=O)N2CCN(c3nc(OC[C@@]45CCCN4C[C@H](F)C5)nc4c(F)c(-c5cccc6ccc(F)c(F)c56)ncc34)C[C@@H]2CC#N)C[C@H](C)O1` [Compound 240], the IC50 [1] is reported as 10 to 100 nM, the logD [2] is reported as 3.42 and the solubility kinetic at 2 h [3] is reported as 49.5 µg/mL (≈ 64 µM).

`C[C@@H]1CN(C/C=C/C(=O)N2CCN(c3nc(OC[C@@]45CCCN4C[C@H](F)C5)nc4c(F)c(-c5cccc(Cl)c5C5CC5)ncc34)C[C@@H]2CC#N)C[C@H](C)O1` [Compound 300] gave an IC50 [1] of 10 to 100 nM, a logD [2] of 4.05 and a solubility kinetic at 2 h [3] of 124 µg/mL (≈ 164 µM).

In the case of `N#CC[C@H]1CN(c2nc(OCC34CCCN3CCC4)nc3c2CCN(c2cccc4cccc(Cl)c24)C3)CCN1C(=O)/C=C/CN1CCCOCC1` [Compound 163], the IC50 [1] is reported as < 10 nM, the logD [2] is reported as 2.44 and the solubility kinetic at 2 h [3] is reported as 130 µg/mL (≈ 180 µM).

`N#CC[C@H]1CN(c2nc(OC[C@@]34CCCN3C[C@H](F)C4)nc3c(F)c(-c4cccc5cccc(F)c45)ncc23)CCN1C(=O)/C=C/CN1CCOCC1` [Compound 233] showed an IC50 [1] of 10 to 100 nM, a logD [2] of 2.91 and a solubility kinetic at 2 h [3] of 102 µg/mL (≈ 141 µM).

In the case of `CN1CCN(C/C=C/C(=O)N2CCN(c3nc(OCC45CCCN4CCC5)nc4c3CCN(c3cccc5cccc(Cl)c35)C4)C[C@@H]2CC#N)CC1` [Compound 162], the IC50 [1] is reported as 10 to 100 nM, the logD [2] is reported as 1.97 and the solubility kinetic at 2 h [3] is reported as 133 µg/mL (≈ 183 µM).

`CN(C)C/C=C/C(=O)N1CCN(c2nc(OC[C@@]34CCCN3C[C@H](F)C4)nc3c(F)c(-c4cccc(Cl)c4C4CC4)ncc23)C[C@@H]1CC#N` [Compound 115, 2-((S)-4-(7-(3-chloro-2-cyclopropylphenyl)-8-fluoro-2-(((2R,7aS)-2-fluorotetrahydro-1H-pyrrolizin-7a(5H)-yl)methoxy)pyrido[4,3-d]pyrimidin-4-yl)-1-((E)-4-(dimethylamino)but-2-enoyl)piperazin-2-yl)acetonitrile] showed an IC50 [1] of 10 to 100 nM, a logD [2] of 2.54 and a solubility kinetic at 2 h [3] of 114 µg/mL (≈ 165 µM).

In the case of `C[C@@H]1CN(C/C=C/C(=O)N2CCN(c3nc(OC[C@@]45CCCN4C[C@H](F)C5)nc4c(F)c(-c5cccc(Cl)c5C(F)(F)F)ncc34)C[C@@H]2CC#N)C[C@@H](C)O1` [Compound 307], the IC50 [1] is reported as < 10 nM, the logD [2] is reported as 3.68 and the solubility kinetic at 2 h [3] is reported as 124 µg/mL (≈ 157 µM).

In the case of `C[C@@H]1CN(C/C=C/C(=O)N2CCN(c3nc(OC[C@@]45CCCN4C[C@H](F)C5)nc4c(F)c(-c5cccc6ccc(F)c(F)c56)ncc34)C[C@@H]2CC#N)C[C@@H](C)O1` [Compound 241], the IC50 [1] is reported as 10 to 100 nM, the logD [2] is reported as 2.94 and the solubility kinetic at 2 h [3] is reported as 60.1 µg/mL (≈ 77.7 µM).

In the case of `N#CC[C@H]1CN(c2nc(OC[C@@]34CCCN3C[C@H](F)C4)nc3c2CCN(c2cccc4cccc(Cl)c24)C3)CCN1C(=O)/C=C/c1nc(C2COC2)no1` [Example 7, 2-((S)-4-(7-(8-chloronaphthalen-1-yl)-2-(((2R,7aS)-2-fluorohexahydro-1H-pyrrolizin-7a-yl)methoxy)-5,6,7,8-tetrahydropyrido[3,4-d]pyrimidin-4-yl)-1-((E)-3-(3-(oxetan-3-yl)-1,2,4-oxadiazol-5-yl)acryloyl)piperazin-2-yl)acetonitrile], the IC50 [1] is reported as < 10 nM, the logD [2] is reported as 2.69 and the solubility kinetic at 2 h [3] is reported as 0.01 µg/mL (≈ 0.0133 µM).

In the case of `N#CC[C@H]1CN(c2nc(OC[C@@]34CCCN3C[C@H](F)C4)nc3c(F)c(-c4cccc(Cl)c4C4CC4)ncc23)CCN1C(=O)/C=C/CN1CC2CCC(C1)O2` [Compound 261], the IC50 [1] is reported as 10 to 100 nM, the logD [2] is reported as 3.14 and the solubility kinetic at 2 h [3] is reported as 56.7 µg/mL (≈ 74.7 µM).

For `C#Cc1c(F)ccc2cccc(-c3ncc4c(N5CCN(C(=O)/C=C/CN6CC7CCC(C6)O7)[C@@H](CC#N)C5)nc(OC[C@@]56CCCN5C[C@H](F)C6)nc4c3F)c12` [Compound 285], the IC50 [1] was < 10 nM, the logD [2] was 3.54 and the solubility kinetic at 2 h [3] was 70.4 µg/mL (≈ 90.6 µM).

With `N#CC[C@H]1CN(c2nc(OC[C@@]34CCCN3C[C@H](F)C4)nc3c(F)c(-c4cccc5cccc(Cl)c45)ncc23)CCN1C(=O)/C=C/CN1CCN(C2COC2)CC1` [Compound 325] the IC50 [1] was < 10 nM, the logD [2] was 2.5 and the solubility kinetic at 2 h [3] was 115 µg/mL (≈ 144 µM).

For `N#CC[C@H]1CN(c2nc(OCC34CCCN3CCC4)nc3c2CCN(c2cccc4cccc(Cl)c24)C3)CCN1C(=O)/C=C/CN1CC2COCC(C1)O2` [Compound 172], the IC50 [1] was < 10 nM, the logD [2] was 2.1 and the solubility kinetic at 2 h [3] was 119 µg/mL (≈ 158 µM).

For `N#CC[C@H]1CN(c2nc(OC[C@@]34CCCN3C[C@H](F)C4)nc3c(F)c(-c4cccc5ccc(F)c(F)c45)ncc23)CCN1C(=O)/C=C/CN1CCCOCC1` [Compound 110, 2-((S)-1-((E)-4-(1,4-oxazepan-4-yl)but-2-enoyl)-4-(7-(7,8-difluoronaphthalen-1-yl)-8-fluoro-2-(((2R,7aS)-2-fluorotetrahydro-1H-pyrrolizin-7a(5H)-yl)methoxy)pyrido[4,3-d]pyrimidin-4-yl)piperazin-2-yl)acetonitrile], the IC50 [1] was < 10 nM, the logD [2] was 2.9 and the solubility kinetic at 2 h [3] was 78.6 µg/mL (≈ 104 µM).

With `N#CC[C@H]1CN(c2nc(OC[C@@]34CCCN3C[C@H](F)C4)nc3c(F)c(-c4cccc5ccc(F)c(F)c45)ncc23)CCN1C(=O)/C=C/CN1CC2CCC(C1)O2` [Compound 249] the IC50 [1] was < 10 nM, the logD [2] was 3.38 and the solubility kinetic at 2 h [3] was 71.1 µg/mL (≈ 92.2 µM).

In the case of `Cc1cc(/C=C/C(=O)N2CCN(c3nc(OC[C@@]45CCCN4C[C@H](F)C5)nc4c(F)c(-c5cccc(Cl)c5C(F)(F)F)ncc34)C[C@@H]2CC#N)nc(C)n1` [Compound 297], the IC50 [1] is reported as 10 to 100 nM, the logD [2] is reported as 3.89 and the solubility kinetic at 2 h [3] is reported as 29.7 µg/mL (≈ 38.6 µM).

`CC1(c2noc(/C=C/C(=O)N3CCN(c4nc(OC[C@@]56CCCN5C[C@H](F)C6)nc5c(F)c(-c6cccc7cccc(Cl)c67)ncc45)C[C@@H]3CC#N)n2)CC1` [Compound 47] gave an IC50 [1] of 100 to 500 nM, a logD [2] of 4.59 and a solubility kinetic at 2 h [3] of 0.01 µg/mL (≈ 0.0131 µM).

With `CC(C)c1noc(/C=C/C(=O)N2CCN(c3nc(OC[C@@]45CCCN4C[C@H](F)C5)nc4c(F)c(-c5ccccc5C(F)F)ncc34)C[C@@H]2CC#N)n1` [Compound 152] the IC50 [1] was > 500 nM, the logD [2] was 2.62 and the solubility kinetic at 2 h [3] was 126 µg/mL (≈ 175 µM).

In the case of `N#CC[C@H]1CN(c2nc(OCC34CCCN3CCC4)nc3c2CCN(c2ccccc2C(F)F)C3)CCN1C(=O)/C=C/CN1CCOCC1` [Compound 61], the IC50 [1] is reported as > 500 nM, the logD [2] is reported as 1.22 and the solubility kinetic at 2 h [3] is reported as 88.7 µg/mL (≈ 131 µM).

For `C[C@@H]1CN(C/C=C/C(=O)N2CCN(c3nc(OC[C@@]45CCCN4C[C@H](F)C5)nc4c(F)c(-c5cccc6cccc(F)c56)ncc34)C[C@@H]2CC#N)C[C@@H](C)O1` [Compound 236], the IC50 [1] was 100 to 500 nM, the logD [2] was 3.59 and the solubility kinetic at 2 h [3] was 88 µg/mL (≈ 117 µM).

Compound `N#CC[C@H]1CN(c2nc(OC[C@@]34CCCN3C[C@H](F)C4)nc3c(F)c(-c4cccc5cccc(Cl)c45)ncc23)CCN1C(=O)/C=C/c1nc([C@H]2C[C@@H]2F)no1` [Compound 15, 2-((S)-4-(7-(8-chloronaphthalen-1-yl)-8-fluoro-2-(((2R,7aS)-2-fluorotetrahydro-1H-pyrrolizin-7a(5H)-yl)methoxy)pyrido[4,3-d]pyrimidin-4-yl)-1-((E)-3-(3-((1R,2S)-2-fluorocyclopropyl)-1,2,4-oxadiazol-5-yl)acryloyl)piperazin-2-yl)acetonitrile] has an IC50 [1] of 100 to 500 nM, a logD [2] of 4.24 and a solubility kinetic at 2 h [3] of 0.01 µg/mL (≈ 0.013 µM).

With `C#Cc1c(F)ccc2cccc(-c3ncc4c(N5CCN(C(=O)/C=C/CN6[C@@H]7CC[C@H]6COC7)[C@@H](CC#N)C5)nc(OC[C@@]56CCCN5C[C@H](F)C6)nc4c3F)c12` [Compound 107, 2-((S)-1-((E)-4-((1R,5S)-3-oxa-8-azabicyclo[3.2.1]octan-8-yl)but-2-enoyl)-4-(7-(8-ethynyl-7-fluoronaphthalen-1-yl)-8-fluoro-2-(((2R,7aS)-2-fluorotetrahydro-1H-pyrrolizin-7a(5H)-yl)methoxy)pyrido[4,3-d]pyrimidin-4-yl)piperazin-2-yl)acetonitrile] the IC50 [1] was < 10 nM, the logD [2] was 2.93 and the solubility kinetic at 2 h [3] was 132 µg/mL (≈ 170 µM).

Work on `N#CC[C@H]1CN(c2nc(OCC34CCCN3CCC4)nc3c(F)c(-c4cccc5cccc(Cl)c45)ncc23)CCN1C(=O)/C=C/c1nc([C@H]2C[C@@H]2F)no1` [Compound 38] yielded an IC50 [1] of 100 to 500 nM, a logD [2] of 2.91 and a solubility kinetic at 2 h [3] of 53.9 µg/mL (≈ 71.7 µM).

In the case of `N#CC[C@H]1CN(c2nc(OC[C@@]34CCCN3C[C@H](F)C4)nc3c(F)c(-c4cccc5cccc(Cl)c45)ncc23)CCN1C(=O)/C=C/CN1C[C@@H]2CC[C@H]1CO2` [Compound 259], the IC50 [1] is reported as < 10 nM, the logD [2] is reported as 2.92 and the solubility kinetic at 2 h [3] is reported as 147 µg/mL (≈ 191 µM).

For `N#CC[C@H]1CN(c2nc(OC[C@@]34CCCN3C[C@H](F)C4)nc3c(F)c(-c4cccc5cccc(Cl)c45)ncc23)CCN1C(=O)/C=C/c1nc(C(F)F)no1` [Compound 20], the IC50 [1] was < 10 nM, the logD [2] was 2.61 and the solubility kinetic at 2 h [3] was 0.28 µg/mL (≈ 0.367 µM).

With `N#CC[C@H]1CN(c2nc(OC[C@@]34CCCN3C[C@H](F)C4)nc3c(F)c(-c4cccc5ccc(F)c(Cl)c45)ncc23)CCN1C(=O)/C=C/CN1CCOC2CC21` (stereo partly drawn) [Compound 160] the IC50 [1] was < 10 nM, the logD [2] was 3.33 and the solubility kinetic at 2 h [3] was 86.8 µg/mL (≈ 112 µM).
